Data published in ChEMBL document CHEMBL4811256, “Synthesis and evaluation of multi-target-directed ligands with BACE-1 inhibitory and Nrf2 agonist activities as potential agents against Alzheimer's disease” (Eur J Med Chem, 2021).
Active and inactive are the calls of the source. No cut-off for these calls is given here.

Legend:
[1] = Glutathione peroxidase-like activity in pH 7.5 potassium phosphate buffer assessed as catalytic reduction of H2O2 by measuring initial velocity at 25 degreeC using GSH in presence of NADPH by UV absorbance analysis (reference value: 30.41+/- 2.06 microM/min); type: functional
in vitro = conditions: PAMPA
Beta-secretase 1 = Beta-secretase 1 (Homo sapiens, UniProt P56817); test: Inhibition of BACE-1 (unknown origin) using Mca-Ser-Glu-Val-Asn-Leu-Asp-Ala-Glu-Phe-Lys-Dnp-OH as substrate preincubated for 30 mins followed by substrate addition and measured after 1 hr by FRET assay
Chain of Beta-secretase 1 (P56817 whole entry): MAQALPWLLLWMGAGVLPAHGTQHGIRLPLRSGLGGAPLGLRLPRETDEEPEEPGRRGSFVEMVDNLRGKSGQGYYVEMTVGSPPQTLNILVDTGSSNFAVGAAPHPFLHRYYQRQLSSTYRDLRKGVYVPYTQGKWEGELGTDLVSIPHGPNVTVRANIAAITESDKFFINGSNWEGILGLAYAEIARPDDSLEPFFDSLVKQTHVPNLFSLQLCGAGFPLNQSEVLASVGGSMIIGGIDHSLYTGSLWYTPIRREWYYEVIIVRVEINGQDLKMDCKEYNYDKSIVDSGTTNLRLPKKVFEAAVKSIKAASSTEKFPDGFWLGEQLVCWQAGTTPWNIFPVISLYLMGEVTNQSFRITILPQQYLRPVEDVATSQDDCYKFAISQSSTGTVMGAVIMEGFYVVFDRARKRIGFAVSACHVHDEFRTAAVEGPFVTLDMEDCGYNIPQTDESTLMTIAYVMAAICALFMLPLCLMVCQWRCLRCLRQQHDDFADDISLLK

PC-12 [2] = test: Cytotoxicity against rat PC-12 cells at 25 uM incubated for 24 hrs by MTT assay; type: cell-based; conditions: pc-12, 24 h
PC-12 [3] = test: Neuroprotective activity against H2O2-induced cell damage in rat PC-12 cells assessed as decrease in cell death at 10 uM pretreated for 12 hrs followed by H2O2 challenge by MTT assay; type: functional, cell-based
HEK293 = test: Inhibition of amyloid beta(1 to 40) secretion in human HEK293T cells transfected with human APP harboring Swedish double mutant K595N/M596L at 1 uM measured after 24 hrs by ELISA; type: functional, cell-based
PC-12 [4] = test: Cytoprotective activity against H2O2- induced cell death in rat PC-12 cells assessed as increase in viable cells pretreated for 12 hrs followed by H2O2 challenge by MTT assay; type: functional, cell-based; conditions: dose 2.5-10 µM
PC-12 [5] = test: Protection against 6-OHDA-induced ROS accumulation in rat PC-12 cells assessed as intracellular ROS level by measuring mean fluorescence intensity pretreated for 12 hrs followed by 6-OHDA challenge by DCFH-DA staining based flow cytometry; type: functional, cell-based; conditions: dose 2.5-10 µM
PC-12 [6] = test: Protection against H2O2-induced ROS accumulation in rat PC-12 cells assessed as intracellular ROS level by measuring mean fluorescence intensity pretreated for 12 hrs followed by H2O2 challenge by DCFH-DA staining based flow cytometry; type: functional, cell-based; conditions: dose 2.5-10 µM

For `Cc1cccc2c(=O)n(-c3ccc(F)c([C@]4(C)CS(=O)(=O)N(C)C(N)=N4)c3)[se]c12`, which V0 [1] is on record?
Its V0 is 217 µM/min.

Which Papp at 16 h (in vitro) does the source give for `Clc1cccc(Cl)c1N=C1NCCN1` [CLONIDINE] here?
Its Papp at 16 h is 7.36 ×10⁻⁶ cm/s.

Which results are given for `CN1C(N)=N[C@](C)(c2cc(-n3[se]c4ccc(C(F)(F)F)cc4c3=O)ccc2F)CS1(=O)=O`?
IC50 (Beta-secretase 1): 1.6 µM; V0 [1]: 185 µM/min; Activity (PC-12 [2]): Non-Toxic; Activity (PC-12 [3]): Active

For `CCn1cc(C(=O)O)c(=O)c2cc(F)c(N3CCNC(C)C3)c(F)c21` (configuration not stated) [LOMEFLOXACIN], which Papp at 16 h (in vitro) is on record?
Its Papp at 16 h is 2.59 ×10⁻⁶ cm/s.

With `C[C@]12CC[C@@H]3c4ccc(O)cc4CC[C@H]3[C@@H]1CC[C@@H]2O` [ESTRADIOL] as the compound, how does the Papp at 16 h (in vitro) read?
Its Papp at 16 h is 12.2 ×10⁻⁶ cm/s.

Which results are given for `O=c1c2ccccc2[se]n1-c1ccccc1`?
V0 [1]: 153 µM/min; Activity (PC-12 [3]): Active; inhibition (HEK293): inactive; Activity (PC-12 [4]): Dose-Dependent Effect; Activity (PC-12 [5]): Dose-Dependent Effect; Activity (PC-12 [6]): Dose-Dependent Effect

For `CN1C(N)=N[C@](C)(c2cc(-n3[se]c4ccccc4c3=O)ccc2F)CS1(=O)=O`, which IC50 (Beta-secretase 1) is on record?
Its IC50 is 1.92 µM.

What about the V0 [1] of the same compound?
The V0 was 156 µM/min.

And the Activity (PC-12 [2])?
Its Activity is “Non-Toxic”.

And the Activity (PC-12 [3])?
The Activity was “Active”.

Which Papp at 16 h (in vitro) does the source give for `CN1C(C(=O)Nc2ccccn2)=C(O)c2ccccc2S1(=O)=O` [PIROXICAM] here?
The Papp at 16 h was 3.07 ×10⁻⁶ cm/s.

With `CN1C(N)=N[C@](C)(c2cc(NC(=O)c3ccc(F)cn3)ccc2F)CS1(=O)=O` as the compound, how does the V0 [1] read?
The V0 was 29.4 µM/min.

And the Activity (PC-12 [3])?
The Activity was “Active”.

What about the Activity (PC-12 [5]) of the same compound?
Its Activity is “inactive”.

And the Activity (PC-12 [6])?
Its Activity is “inactive”.

For `Cc1ccc2c(=O)n(-c3ccc(F)c([C@]4(C)CS(=O)(=O)N(C)C(N)=N4)c3)[se]c2c1`, which V0 [1] is on record?
The V0 was 130 µM/min.

With `COc1ccc2c(=O)n(-c3ccc(F)c([C@]4(C)CS(=O)(=O)N(C)C(N)=N4)c3)[se]c2c1` as the compound, how does the IC50 (Beta-secretase 1) read?
Its IC50 is 1.55 µM.

What about the V0 [1] of the same compound?
The V0 was 114 µM/min.

For `CN1C(N)=N[C@](C)(c2cc(-n3[se]c4cc(C(F)(F)F)ccc4c3=O)ccc2F)CS1(=O)=O`, which V0 [1] is on record?
Its V0 is 145 µM/min.

Which results are given for `COc1ccc2[se]n(-c3ccc(F)c([C@]4(C)CS(=O)(=O)N(C)C(N)=N4)c3)c(=O)c2c1`?
IC50 (Beta-secretase 1): 1.49 µM; V0 [1]: 161 µM/min; Activity (PC-12 [2]): Non-Toxic; Activity (PC-12 [3]): Active

For `Cc1ccc2[se]n(-c3ccc(F)c([C@]4(C)CS(=O)(=O)N(C)C(N)=N4)c3)c(=O)c2c1`, which V0 [1] is on record?
The V0 was 146 µM/min.

Which V0 [1] does the source give for `CN1C(N)=N[C@](C)(c2cc(-n3[se]c4c(F)cccc4c3=O)ccc2F)CS1(=O)=O` here?
Its V0 is 242 µM/min.

For `CN1C(N)=N[C@](C)(c2cc(-n3[se]c4c(C(F)(F)F)cccc4c3=O)ccc2F)CS1(=O)=O`, which V0 [1] is on record?
Its V0 is 180 µM/min.

With `CN1C(N)=N[C@](C)(c2cc(-n3[se]c4ccc(F)cc4c3=O)ccc2F)CS1(=O)=O` as the compound, how does the IC50 (Beta-secretase 1) read?
Its IC50 is 1.95 µM.

And the V0 [1]?
The V0 was 197 µM/min.

And the Activity (PC-12 [2])?
The Activity was “Non-Toxic”.

And the Activity (PC-12 [3])?
The Activity was “Active”.

Which IC50 (Beta-secretase 1) does the source give for `CN1C(N)=N[C@](C)(c2cc(-n3[se]c4cc(F)c(F)cc4c3=O)ccc2F)CS1(=O)=O` here?
Its IC50 is 1.12 µM.

What about the V0 [1] of the same compound?
Its V0 is 163 µM/min.

What about the Activity (PC-12 [2]) of the same compound?
The Activity was “Non-Toxic”.

And the Activity (PC-12 [3])?
Its Activity is “Active”.
